Holding throughout (type): in vivo
For one test, the system named is Aedes aegypti. Briefly: Aedes aegypti (Yellow fever mosquito) larvae test. To be noted: 48 h.
Test [1] deals with Puccinia recondita f.sp. tritici. Briefly: Puccinia recondita f.sp. tritici (wheat brown rust) leaf disk assay. The following applies: foliar, 216 h, preventive, nine days after inoculation, read-out: control of fungal infection, Puccinia recondita f.sp. tritici.
A further test relates to Pyricularia oryzae. Briefly: whole plant or invertebrate. To be noted: foliar, 96 h.
The subject of test [2] is Erysiphe graminis f.sp. tritici. Briefly: Erysiphe graminis f.sp. tritici (wheat powdery mildew) leaf disk assay. The following applies: Blumeria graminis, foliar, 96 h, preventive, four days after inoculation, read-out: control of fungal infection, Erysiphe graminis fsp. tritici.
[3] abbreviates: read-out: control of fungal infection, Pyricularia oryzae (at least 60% list).
The mark [4] stands for this setting: read-out: control of fungal infection, Pyricularia oryzae (at least 80% list).

Where two headings read alike, the source gives them in different places.

On to `Cc1ccc(OC2C[C@H]3CC[C@@H](C2)N3c2ncnc3sccc23)cc1` (some centres unmarked) [Example 1.7], for which the pest or weed control at 2 ppm in the test with Aedes aegypti is no less than 80%. Besides, in test [1], the pest or weed control at 200 ppm was no less than 80%.

In the case of `Clc1cc(Br)ccc1OC1C[C@H]2CC[C@@H](C1)N2c1ncnc2sccc12` (some centres unmarked) [Example 1.28], the pest or weed control at 200 ppm in the test with Pyricularia oryzae (setting [3]) is no less than 60%.

For the compound `Cc1nn(C)c2nccc(N3[C@@H]4CC[C@H]3CC(Oc3ccc(Cl)cc3)C4)c12` (some centres unmarked) [Example 1.138], in the test with Pyricularia oryzae (setting [3]), the pest or weed control at 200 ppm was no less than 60%.

With `Fc1ccc(OC2C[C@H]3CC[C@@H](C2)N3c2ncnc3sccc23)cc1F` (some centres unmarked) [Example 2.18], the pest or weed control at 200 ppm in the test with Pyricularia oryzae (setting [3]) is no less than 60%.

With `Fc1ccc(F)c(OC2C[C@H]3CC[C@@H](C2)N3c2ncnc3sccc23)c1` (some centres unmarked) [Example 2.25], the pest or weed control at 200 ppm was no less than 80% in test [2] and no less than 60% with Pyricularia oryzae (setting [3]).

Turning to `c1nc(N2[C@@H]3CC[C@H]2CC(Oc2ccc4c(c2)OCO4)C3)c2ccsc2n1` (some centres unmarked) [Example 2.29], the pest or weed control at 2 ppm with Aedes aegypti is no less than 80%. The pest or weed control at 200 ppm in test [2] was no less than 80%.

For the compound `O=C(c1ccccc1)c1ccc(OC2C[C@H]3CC[C@@H](C2)N3c2ncnc3sccc23)cc1` (some centres unmarked) [Example 2.39], the pest or weed control at 200 ppm with Pyricularia oryzae (setting [3]) is no less than 60%.

`Fc1ccc(OC2C[C@H]3CC[C@@H](C2)N3c2ncnc3sccc23)cc1C(F)(F)F` (some centres unmarked) [Example 2.52]: the pest or weed control at 200 ppm with Pyricularia oryzae (setting [3]) is no less than 60%.

Turning to `FC(F)(F)c1cccc(OC2C[C@H]3CC[C@@H](C2)N3c2ncnc3sccc23)n1` (some centres unmarked) [Example 2.60], the pest or weed control at 200 ppm in test [2] is no less than 80%; in the test with Pyricularia oryzae (setting [3]), no less than 60%; in test [1], no less than 80%.

Regarding `O=c1oc2cc(OC3C[C@H]4CC[C@@H](C3)N4c3ncnc4sccc34)ccc2s1` (some centres unmarked) [Example 2.69], the pest or weed control at 200 ppm in the test on Pyricularia oryzae (setting [3]) was no less than 60%.

For the compound `Cc1csc2c(N3[C@@H]4CC[C@H]3CC(Oc3ccc(C(F)(F)F)cn3)C4)ncnc12` (some centres unmarked) [Example 2.81], the pest or weed control at 200 ppm with Pyricularia oryzae (setting [3]) is no less than 60%.

Regarding `FC(F)(F)c1ccnc(OC2C[C@H]3CC[C@@H](C2)N3c2ncnc3ccccc23)c1` (some centres unmarked) [Example 2.84], the pest or weed control at 200 ppm in test [2] is no less than 80%; with Pyricularia oryzae (setting [3]) it was no less than 60%; in test [1], no less than 80%.

Turning to `CSc1nccc(N2[C@@H]3CC[C@H]2CC(Oc2cccc(C(F)(F)F)n2)C3)n1` (some centres unmarked) [Example 2.98], the pest or weed control at 200 ppm with Pyricularia oryzae (setting [3]) was no less than 60%.

With `CCc1ncnc(N2[C@@H]3CC[C@H]2CC(Oc2ccc4c(c2)OCO4)C3)c1Cl` (some centres unmarked) [Example 2.138], the pest or weed control at 2 ppm in the test on Aedes aegypti is no less than 80%.

As for `CCc1ncnc(N2[C@@H]3CC[C@H]2CC(Oc2c(F)c(F)c(F)c(F)c2F)C3)c1Cl` (some centres unmarked) [Example 2.150], in the test with Aedes aegypti, the pest or weed control at 2 ppm was no less than 80%.

Consider `Cc1nn(C)c2nccc(N3[C@@H]4CC[C@H]3CC(Oc3ccc(Oc5ccc(C(F)(F)F)cn5)cc3)C4)c12` (some centres unmarked) [Example 2.160], for which the pest or weed control at 200 ppm with Pyricularia oryzae (setting [3]) was no less than 60%.

On to `CCc1ncnc(N2[C@@H]3CC[C@H]2CC(Oc2ccc4sc(=O)oc4c2)C3)c1Cl` (some centres unmarked) [Example 2.177], for which the pest or weed control at 200 ppm in the test with Pyricularia oryzae (setting [3]) was no less than 60%.

With `FC(F)(F)c1ccnc(OC2C[C@H]3CC[C@@H](C2)N3c2ccnc3c(Cl)cccc23)c1` (some centres unmarked) [Example 2.195], the pest or weed control at 200 ppm in the test on Pyricularia oryzae (setting [3]) was no less than 60%.

For `Cn1cc(C(=O)N2[C@@H]3CC[C@H]2CC(Oc2cc(C(F)(F)F)ccn2)C3)c(C(F)(F)F)c1` (some centres unmarked) [Example 2.219], the pest or weed control at 200 ppm with Pyricularia oryzae (setting [3]) was no less than 60%.

Take `Cn1cc(C(=O)N2[C@@H]3CC[C@H]2CC(Oc2cccc(C(F)(F)F)n2)C3)c(C(F)(F)F)c1` (some centres unmarked) [Example 2.221]: the pest or weed control at 200 ppm in the test on Pyricularia oryzae (setting [3]) was no less than 60%.

Regarding `CCc1ncnc(N2C3CCC2CC(=CC(=O)Nc2ccc(Cl)cc2)C3)c1Cl` [Example 3.11], the pest or weed control at 200 ppm is no less than 60% in the test on Pyricularia oryzae (setting [3]) and no less than 80% in test [1].

As for `COc1cc(OCC=C2CC3CCC(C2)N3c2ncnc3sccc23)ccc1Cl` [Example 3.24], the pest or weed control at 200 ppm (with Pyricularia oryzae (setting [4]); in test [1]) was no less than 80% in each case.

On to `COC(=O)C=C1CC2CCC(C1)N2c1ncnc2sccc12` [Example 3.28], for which the pest or weed control at 2 ppm with Aedes aegypti is no less than 80%. In addition, the pest or weed control at 200 ppm (in the test on Pyricularia oryzae (setting [4]); in test [1]) was no less than 80% each time.

Turning to `CCCNC(=O)C=C1CC2CCC(C1)N2c1ncnc2sccc12` [Example 3.31], the pest or weed control at 200 ppm (in the test on Pyricularia oryzae (setting [4]); in test [1]) was no less than 80% throughout.

Consider `CCCCNC1C[C@H]2CC[C@@H](C1)N2c1ncnc2sccc12` (some centres unmarked) [Example 4.9], for which the pest or weed control at 200 ppm in the test on Pyricularia oryzae (setting [4]) is no less than 80%.

`c1ccc(CNC2C[C@H]3CC[C@@H](C2)N3c2ncnc3sccc23)cc1` (some centres unmarked) [Example 4.10]: in the test on Pyricularia oryzae (setting [4]), the pest or weed control at 200 ppm was no less than 80%.

Turning to `CCc1ncnc(N2C3CCC2CC(=NOCc2cccc(OC)c2)C3)c1Cl` [Example 5.15], the pest or weed control at 2 ppm with Aedes aegypti was no less than 80%. The pest or weed control at 200 ppm in test [2] and in test [1] was no less than 80% each time.

Turning to `CCc1ncnc(N2C3CCC2CC(=NOCc2cccnc2)C3)c1Cl` [Example 5.25], in the test with Aedes aegypti, the pest or weed control at 2 ppm is no less than 80%. Moreover, the pest or weed control at 200 ppm in test [2] was no less than 80%.

Turning to `CCc1ncnc(N2C3CCC2CC(=NOCc2ccccc2C#N)C3)c1Cl` [Example 5.38], the pest or weed control at 2 ppm in the test on Aedes aegypti was no less than 80%. The pest or weed control at 200 ppm in test [2] was no less than 80%; in the test with Pyricularia oryzae (setting [3]) it was no less than 60%; in test [1], no less than 80%.

Turning to `CCc1ncnc(N2C3CCC2CC(=NOCc2cc(F)cc(F)c2)C3)c1Cl` [Example 5.57], the pest or weed control at 200 ppm (in test [2]; with Pyricularia oryzae (setting [4]); in test [1]) was no less than 80% in each case.

For the compound `CCc1ncnc(N2C3CCC2CC(=NOCc2c(F)cccc2Cl)C3)c1Cl` [Example 5.90], the pest or weed control at 2 ppm in the test on Aedes aegypti was no less than 80%. Further, the pest or weed control at 200 ppm in test [2] and in test [1] was no less than 80% throughout.

Turning to `CCc1ncnc(N2C3CCC2CC(=NOCc2ccc(-c4nnn(CC)n4)cc2)C3)c1Cl` [Example 5.112], the pest or weed control at 2 ppm with Aedes aegypti is no less than 80%. The pest or weed control at 200 ppm in test [2] and in test [1] was no less than 80% each time.

`CCc1ncnc(C(C)c2ncnc(N3C4CCC3CC(=NOc3ncc(C(F)(F)F)cc3Cl)C4)c2Cl)c1Cl` (centres unmarked) [Example 5.124]: the pest or weed control at 200 ppm in the test with Pyricularia oryzae (setting [3]) was no less than 60%.

On to `c1cc(CON=C2CC3CCC(C2)N3c2ncnc3sccc23)ccn1` [Example 5.131], for which the pest or weed control at 2 ppm with Aedes aegypti was no less than 80%. The pest or weed control at 200 ppm in test [2] was no less than 80%.

Consider `Cc1cc(C)cc(CON=C2CC3CCC(C2)N3c2ncnc3sccc23)c1` [Example 5.156], for which the values for the pest or weed control at 200 ppm (in test [2]; with Pyricularia oryzae (setting [3]); in test [1]) were no less than 80%, no less than 60% and no less than 80%, respectively.

For the compound `c1ccc(Oc2cccc(CON=C3CC4CCC(C3)N4c3ncnc4sccc34)c2)cc1` [Example 5.173], the pest or weed control at 200 ppm in test [2] is no less than 80%; with Pyricularia oryzae (setting [3]) it was no less than 60%; in the test on Pyricularia oryzae (setting [4]) it was no less than 80%; in test [1], no less than 80%.

On to `CCCCOCON=C1CC2CCC(C1)N2c1ncnc2sccc12` [Example 5.178], for which the pest or weed control at 200 ppm is no less than 80% in test [2], no less than 60% in the test with Pyricularia oryzae (setting [3]) and no less than 80% in test [1].

In the case of `Fc1cccc(CON=C2CC3CCC(C2)N3c2ncnc3sccc23)c1` [Example 5.183], the pest or weed control at 2 ppm in the test with Aedes aegypti is no less than 80%. Also, the pest or weed control at 200 ppm in test [2] and in test [1] was no less than 80% in each case.

On to `Cc1ccc(C)c(CON=C2CC3CCC(C2)N3c2ncnc3sccc23)c1` [Example 5.203], for which the pest or weed control at 200 ppm in test [2] is no less than 80%; in the test with Pyricularia oryzae (setting [3]), no less than 60%; in test [1], no less than 80%.

As to `FC(F)(F)Oc1cccc(CON=C2CC3CCC(C2)N3c2ncnc3sccc23)c1` [Example 5.212], the pest or weed control at 200 ppm in test [2] was no less than 80%; with Pyricularia oryzae (setting [3]) it was no less than 60%; in test [1], no less than 80%.

On to `Fc1ccc(C(F)(F)F)c(CON=C2CC3CCC(C2)N3c2ncnc3sccc23)c1` [Example 5.234], for which the pest or weed control at 200 ppm (in test [2]; in the test on Pyricularia oryzae (setting [4]); in test [1]) was no less than 80% throughout.

On to `Cc1nc(ON=C2CC3CCC(C2)N3c2ncnc3sccc23)cc(-c2ccccc2)n1` [Example 5.236], for which the pest or weed control at 200 ppm in the test on Pyricularia oryzae (setting [3]) is no less than 60%.

In the case of `FC(F)(F)Sc1cccc(CON=C2CC3CCC(C2)N3c2ncnc3sccc23)c1` [Example 5.239], the pest or weed control at 200 ppm (in test [2]; in the test with Pyricularia oryzae (setting [4]); in test [1]) was no less than 80% in each case.

On to `Cc1nn(C)c2nccc(N3C4CCC3CC(=NOCc3ccc(Cl)cc3)C4)c12` [Example 5.256], for which the pest or weed control at 200 ppm in test [2] was no less than 80%; in the test on Pyricularia oryzae (setting [3]) it was no less than 60%; in test [1], no less than 80%.

Consider `Fc1cc2c(c(CON=C3CC4CCC(C3)N4c3ncnc4sccc34)c1)OCOC2` [Example 5.257], for which the pest or weed control at 200 ppm in test [2] and in test [1] was no less than 80% in each case.

As for `OC1(Cc2ccccc2)CC2CCC(C1)N2c1ncnc2sccc12` (centres unmarked) [Example 7.14], the pest or weed control at 200 ppm in the test with Pyricularia oryzae (setting [4]) is no less than 80%.

As to `CC(C)(C)c1csc(CC2CC3CCC(C2)N3c2ncnc3sccc23)n1` (centres unmarked) [Example 7.17], the pest or weed control at 200 ppm is no less than 60% in the test with Pyricularia oryzae (setting [3]) and no less than 80% in the test on Pyricularia oryzae (setting [4]).

On to `FC(F)(F)C(F)(F)c1csc(CC2CC3CCC(C2)N3c2ncnc3sccc23)n1` (centres unmarked) [Example 7.20], for which the pest or weed control at 200 ppm with Pyricularia oryzae (setting [3]) was no less than 60%; in test [1] it was no less than 80%.

In the case of `CCc1ncnc(N2C3CCC2CC(CC(=O)Nc2ccc(Cl)cc2)C3)c1Cl` (centres unmarked) [Example 7.22], the pest or weed control at 200 ppm in the test with Pyricularia oryzae (setting [3]) is no less than 60%; in the test with Pyricularia oryzae (setting [4]), no less than 80%; in test [1] it was no less than 80%.

Source of the values: patent publication US20100331348A1, “TROPANE DERIVATIVES USEFUL AS PESTICIDES” (SYNGENTA CROP PROTECTION, INC., priority 2007, published 2010).
